Test results as given in patent EP4667458A1 (Kanaph Therapeutics Inc., priority 2023, dated 2024).
pIC50: −log10 of the molar value. Where two headings read alike, the source gives them in different places.

Molecular target: T1, KRAS^G12C::SOS1 (Homo sapiens, UniProt Q07889)
T1 sequence (Q07889 1-1333): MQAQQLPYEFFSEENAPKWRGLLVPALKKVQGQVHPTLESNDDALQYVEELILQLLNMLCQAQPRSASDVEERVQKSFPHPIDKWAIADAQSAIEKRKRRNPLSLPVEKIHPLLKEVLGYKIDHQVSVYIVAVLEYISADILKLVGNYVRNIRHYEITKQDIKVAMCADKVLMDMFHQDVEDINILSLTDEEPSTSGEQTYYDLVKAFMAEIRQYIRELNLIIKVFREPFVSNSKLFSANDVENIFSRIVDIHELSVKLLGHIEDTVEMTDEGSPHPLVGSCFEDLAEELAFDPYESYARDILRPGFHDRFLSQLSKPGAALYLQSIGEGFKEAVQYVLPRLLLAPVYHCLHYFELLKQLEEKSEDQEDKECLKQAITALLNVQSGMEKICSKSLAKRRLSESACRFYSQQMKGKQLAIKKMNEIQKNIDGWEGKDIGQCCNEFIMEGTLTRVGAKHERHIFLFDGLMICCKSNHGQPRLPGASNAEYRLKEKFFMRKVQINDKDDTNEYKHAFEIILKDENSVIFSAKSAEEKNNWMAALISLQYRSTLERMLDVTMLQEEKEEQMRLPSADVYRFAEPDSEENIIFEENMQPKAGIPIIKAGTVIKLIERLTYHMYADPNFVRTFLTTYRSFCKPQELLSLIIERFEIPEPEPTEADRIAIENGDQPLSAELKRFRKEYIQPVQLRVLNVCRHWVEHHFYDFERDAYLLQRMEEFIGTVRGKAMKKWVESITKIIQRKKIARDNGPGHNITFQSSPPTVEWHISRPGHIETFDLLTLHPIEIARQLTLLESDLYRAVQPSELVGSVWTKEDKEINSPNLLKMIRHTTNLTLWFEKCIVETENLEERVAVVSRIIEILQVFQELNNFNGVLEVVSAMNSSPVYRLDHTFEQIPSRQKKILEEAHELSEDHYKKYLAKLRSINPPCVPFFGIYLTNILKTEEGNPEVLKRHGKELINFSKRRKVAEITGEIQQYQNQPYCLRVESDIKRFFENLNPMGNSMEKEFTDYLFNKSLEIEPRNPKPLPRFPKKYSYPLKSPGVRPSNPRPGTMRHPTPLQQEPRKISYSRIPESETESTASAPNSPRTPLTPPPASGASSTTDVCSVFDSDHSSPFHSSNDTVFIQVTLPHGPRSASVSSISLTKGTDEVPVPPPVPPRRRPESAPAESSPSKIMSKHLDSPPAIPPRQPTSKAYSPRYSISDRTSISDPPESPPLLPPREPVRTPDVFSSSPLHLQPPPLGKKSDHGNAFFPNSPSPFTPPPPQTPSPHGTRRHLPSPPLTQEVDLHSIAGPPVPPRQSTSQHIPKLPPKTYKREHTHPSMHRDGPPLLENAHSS
Experiment: KRAS G12C::SOS1 protein-protein interaction (PPI) inhibition assay (HTRF binding kit)

[1] = read-out: KRAS ^G12C::SOS1 PPI assay (IC50 range, Grade), maximum concentration 3 µM, 8 concentrations, three replicates

Method: Protein-protein interaction between SOS1 and KRAS^G12C was detected using KRAS G12C/SOS1 binding kit from CISBIO (64KRASG12PEH, CISBIO, FRANCE) according to the manufacturer's assay method. Briefly, the maximum concentration of an inhibitor sample was set to be 3 µM, and the inhibitor sample was diluted 7 times by 1/3, and samples having a total of 8 concentrations were prepared. In HTRF (Homogeneous Time-Resolved Fluorescence) exclusive 96-well low-volume white plate (66PL96005, CISBIO, FRANCE), 2 µL of an inhibitor sample prepared for each concentration, 5 µL of a mixed solution of Tag1-labeled KRAS^G12C protein and GTP diluted with the dilution solution provided by the manufacturer, and 5 µL of Tag2 labeled SOS1 protein were mixed, and added with 8 µL of a diluted solution where anti-Tag1 KRAS^G12C XL665 (HTRF acceptor) labeled antibody and anti-Tag2 SOS1 Terbium cryptate (HTRF donor) labeled antibody were mixed in an equal ratio and incubated at room temperature for 2 h.

Row | Compound | pIC50 | pIC50 [1]
1 | COc1ccc(-n2nc(C(=O)N[C@H](C)c3cccc(C(F)(F)CO)c3F)ccc2=O)cc1C(=O)N(C)C [Example 206, N-[(1R)-1-[3-(1,1-difluoro-2-hydroxy-ethyl)-2-fluoro-phenyl]ethyl]-1-[3-(dimethylcarbamoyl)-4-methoxy-phenyl]-6-oxo-pyridazine-3-carboxamide] | > 6.00 | 
2 | CNCc1cc(Cl)ccc1-c1ccc([C@@H](C)NC(=O)c2ccc(=O)n(-c3ccccc3F)c2)s1 [Example 282, N-[(1R)-1-[5-[4-chloro-2-(methylaminomethyl)phenyl]-2-thienyl]ethyl]-1-(2-fluorophenyl)-6-oxo-pyridine-3-carboxamide] | > 6.00 | 
3 | C[C@@H](NC(=O)c1ccc(=O)n(-c2cccnc2)c1)c1cccc(C(F)(F)CO)c1F [Example 175, N-[(1R)-1-[3-(1,1-difluoro-2-hydroxy-ethyl)-2-fluoro-phenyl]ethyl]-6-oxo-1-(3-pyridyl)pyridine-3-carboxamide] | 5.00 to 6.00 | 
4 | CNCc1ccc(Cl)cc1-c1ccc([C@@H](C)NC(=O)c2ccc(=O)n(C3CCN(C(C)=O)CC3)n2)s1 [Example 301, 1-(1-acetyl-4-piperidyl)-N-[(1R)-1-[5-[5-chloro-2-(methylaminomethyl)phenyl]-2-thienyl]ethyl]-6-oxo-pyridazine-3-carboxamide] | > 6.00 | 
5 | [2H]C([2H])([2H])n1nncc1-c1cccc(-n2nc(C(=O)N[C@H](C)c3cc(N)cc(C(F)(F)F)c3)ccc2=O)c1 [Example 237, N-[(1R)-1-[3-amino-5-(trifluoromethyl)phenyl]ethyl]-1-[3-(3-(trideuteriomethyl)triazol-4-yl)phenyl]-6-oxo-pyridazine-3-carboxamide] | > 6.00 | 
6 | N-[(1R)-1-[3-amino-5-(trifluoromethyl)phenyl]ethyl]-6-oxo-1-[3-(4-pyridyl)phenyl]pyridazine-3-carboxamide [Example 346] |  | > 6.00
7 | CNCC(F)(F)c1cccc([C@@H](C)NC(=O)c2ccc(=O)n(-c3ccccc3F)n2)c1F [Example 256, N-[(1R)-1-[3-[1,1-difluoro-2-(methylamino)ethyl]-2-fluorophenyl]ethyl]-1-(2-fluorophenyl)-6-oxo-pyridazine-3-carboxamide] | > 6.00 | 
8 | COc1ccc(-n2cc(C(=O)N[C@H](C)c3cccc(C(F)(F)CO)c3F)ccc2=O)c(F)c1 [Example 179, N-[(1R)-1-[3-(1,1-difluoro-2-hydroxy-ethyl)-2-fluoro-phenyl]ethyl]-1-(2-fluoro-4-methoxyphenyl)-6-oxo-pyridine-3-carboxamide] | > 6.00 | 
9 | C[C@@H](NC(=O)c1ccc(=O)n(-c2ccccc2F)n1)c1cccc(C(F)(F)CO)c1F [Example 217, N-[(1R)-1-[3-(1,1-difluoro-2-hydroxy-ethyl)-2-fluoro-phenyl]ethyl]-1-(2-fluorophenyl)-6-oxo-pyridazine-3-carboxamide] | > 6.00 | 
10 | C[C@@H](NC(=O)c1ccc(=O)n(CCN(C)C)n1)c1cc(N)cc(C(F)(F)F)c1 [Example 229, N-[(1R)-1-[3-amino-5-(trifluoromethyl)phenyl]ethyl]-1-[2-(dimethylamino)ethyl]-6-oxo-pyridazine-3-carboxamide] | 5.00 to 6.00 | 
11 | Cc1ncnn1-c1cccc(-n2nc(C(=O)N[C@H](C)c3cc(N)cc(C(F)(F)F)c3)ccc2=O)c1 [Example 211, N-[(1R)-1-[3-amino-5-(trifluoromethyl)phenyl]ethyl]-1-[3-(5-methyl-1,2,4-triazol-1-yl)phenyl]-6-oxo-pyridazine-3-carboxamide] | > 6.00 | 
12 | C[C@@H](NC(=O)c1ccc(=O)n(-c2ccc3c(c2)COC3)n1)c1cc(N)cc(C(F)(F)F)c1 [Example 208, N-[(1R)-1-[3-amino-5-(trifluoromethyl)phenyl]ethyl]-1-(1,3-dihydroisobenzofuran-5-yl)-6-oxo-pyridazine-3-carboxamide] | > 6.00 | 
13 | C[C@@H](NC(=O)c1ccc(=O)n(-c2ccccc2F)n1)c1cccc(C(F)(F)C(C)(C)O)c1F [Example 192, N-[(1R)-1-[3-(1,1-difluoro-2-hydroxy-2-methyl-propyl)-2-fluoro-phenyl]ethyl]-1-(2-fluorophenyl)-6-oxo-pyridazine-3-carboxamide] | > 6.00 | 
14 | COc1ccc(F)c(-n2cc(C(=O)N[C@H](C)c3cc(N)cc(C(F)(F)F)c3)ccc2=O)c1 [Example 178, N-[(1R)-1-[3-amino-5-(trifluoromethyl)phenyl]ethyl]-1-(2-fluoro-5-methoxy-phenyl)-6-oxo-pyridine-3-carboxamide] | > 6.00 | 
15 | COc1ccc(-n2cc(C(=O)N[C@H](C)c3cc(N)cc(C(F)(F)F)c3)ccc2=O)cc1 [Example 199, N-[(1R)-1-[3-amino-5-(trifluoromethyl)phenyl]ethyl]-1-(4-methoxyphenyl)-6-oxo-pyridine-3-carboxamide] | > 6.00 | 

More lines, now with the values ahead:

Row | pIC50 | pIC50 [1] | Compound
16 | > 6.00 |  | CC(=O)Nc1cc(=O)n(-c2ccccc2)nc1C(=O)N[C@H](C)c1cc(N)cc(C(F)(F)F)c1 [Example 313, 4-acetamido-N-[(1R)-1-[3-amino-5-(trifluoromethyl)phenyl]ethyl]-6-oxo-1-phenyl-pyridazine-3-carboxamide]
17 |  | > 6.00 | CNCc1ccc(F)cc1-c1ccc([C@@H](C)NC(=O)c2ccc(=O)n(-c3cccnc3O)n2)s1 [Example 408]
18 | > 6.00 |  | CNCc1cc(Cl)c(F)cc1-c1ccc([C@@H](C)NC(=O)c2ccc(=O)n(-c3cccnc3F)n2)s1 [Example 400, N-[(1R)-1-(5-{4-chloro-5-fluoro-2-[(methylamino)methyl]phenyl}thiophen-2-yl)ethyl]-1-(2-fluoropyridin-3-yl)-6-oxo-1,6-dihydropyridazine-3-carboxamide]
19 | > 6.00 |  | C[C@@H](NC(=O)c1ccc(=O)n(-c2cccc(-c3ccn[nH]3)c2)n1)c1cc(N)cc(C(F)(F)F)c1 [Example 329, N-[(1R)-1-[3-amino-5-(trifluoromethyl)phenyl]ethyl]-6-oxo-1-[3-(1H-pyrazol-5-yl)phenyl]pyridazine-3-carboxamide]
20 | > 6.00 |  | C[C@@H](NC(=O)c1ccc(=O)n(-c2cccc(C(=O)N(C)C)c2F)n1)c1cccc(C(F)(F)CO)c1F [Example 353, N-[(1R)-1-[3-(1,1-difluoro-2-hydroxy-ethyl)-2-fluoro-phenyl]ethyl]-1-[3-(dimethylcarbamoyl)-2-fluoro-phenyl]-6-oxo-pyridazine-3-carboxamide]
21 | > 6.00 |  | C[C@@H](NC(=O)c1ccc(=O)n(-c2cccc(-c3ncn(C)n3)c2)n1)c1cc(N)cc(C(F)(F)F)c1 [Example 323, N-[(1R)-1-[3-amino-5-(trifluoromethyl)phenyl]ethyl]-1-[3-(1-methyl-1,2,4-triazol-3-yl)phenyl]-6-oxo-pyridazine-3-carboxamide]
22 | > 6.00 |  | C[C@@H](NC(=O)c1ccc(=O)n(-c2cccc(-c3nnnn3C)c2)n1)c1cc(N)cc(C(F)(F)F)c1 [Example 347, N-[(1R)-1-[3-amino-5-(trifluoromethyl)phenyl]ethyl]-1-[3-(1-methyltetrazol-5-yl)phenyl]-6-oxo-pyridazine-3-carboxamide]
23 | > 6.00 |  | C[C@@H](NC(=O)c1nn(-c2cnn(C)c2)c(=O)c2ccsc12)c1cc(N)cc(C(F)(F)F)c1 [Example 316, N-[(1R)-1-[3-amino-5-(trifluoromethyl)phenyl]ethyl]-5-(1-methylpyrazol-4-yl)-4-oxo-thieno[2,3-d]pyridazine-7-carboxamide]
24 | > 6.00 |  | CNCc1c(F)cccc1-c1ccc([C@@H](C)NC(=O)c2ccc(=O)n(-c3cccnc3F)n2)s1 [Example 409]
25 | 5.00 to 6.00 |  | COc1ccc(-n2nc(C(=O)N[C@H](C)c3cc(N)cc(C(F)(F)F)c3)c(C3CC3)cc2=O)c(F)c1 [Example 367, N-[(1R)-1-[3-amino-5-(trifluoromethyl)phenyl]ethyl]-4-cyclopropyl-1-(2-fluoro-4-methoxy-phenyl)-6-oxo-pyridazine-3-carboxamide]
26 | > 6.00 |  | C[C@@H](NC(=O)c1ccc(=O)n(-c2cccnc2F)n1)c1ccc(-c2cc(F)ccc2CCN)s1 [Example 414, N-[(1R)-1-[5-[2-(2-aminoethyl)-5-fluorophenyl]-2-thienyl]ethyl]-1-(2-fluoro-3-pyridyl)-6-oxopyridazine-3-carboxamide]
